The record followed here is US12239729B2, “TRPV3 agonists for the treatment of skin conditions” (Soricimed Biopharma Inc., priority 2012, dated 2025).

The target of assay [1] is T1, TRPV3 channels expressed in HEK-293 cells (Homo sapiens, UniProt Q8NET8).
T1 construct: expressed in transfected cells; host or cells: HEK-293 cells, transient transfection
T1 sequence (Q8NET8 1-790): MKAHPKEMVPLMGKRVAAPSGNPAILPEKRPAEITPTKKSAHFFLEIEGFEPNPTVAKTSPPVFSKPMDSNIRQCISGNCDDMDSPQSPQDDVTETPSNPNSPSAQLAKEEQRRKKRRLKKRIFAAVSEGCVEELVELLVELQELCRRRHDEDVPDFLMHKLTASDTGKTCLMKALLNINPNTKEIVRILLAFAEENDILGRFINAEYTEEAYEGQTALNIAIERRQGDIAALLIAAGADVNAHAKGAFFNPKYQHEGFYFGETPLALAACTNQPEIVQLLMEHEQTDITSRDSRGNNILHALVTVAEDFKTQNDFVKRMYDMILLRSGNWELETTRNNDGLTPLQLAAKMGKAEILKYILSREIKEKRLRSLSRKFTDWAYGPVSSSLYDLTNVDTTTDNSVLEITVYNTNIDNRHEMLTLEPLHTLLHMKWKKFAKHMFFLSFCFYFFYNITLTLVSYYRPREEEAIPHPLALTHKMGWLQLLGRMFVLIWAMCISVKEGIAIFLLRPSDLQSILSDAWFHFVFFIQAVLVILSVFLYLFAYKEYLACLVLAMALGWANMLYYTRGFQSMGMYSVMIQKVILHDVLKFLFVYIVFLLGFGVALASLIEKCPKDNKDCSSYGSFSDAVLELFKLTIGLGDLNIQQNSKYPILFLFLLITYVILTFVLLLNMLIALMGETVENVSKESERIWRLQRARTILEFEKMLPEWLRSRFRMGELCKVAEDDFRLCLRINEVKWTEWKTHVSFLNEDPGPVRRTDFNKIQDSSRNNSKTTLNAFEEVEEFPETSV
Kind of assay: Patch-clamp testing of TRPV3 channel activity in transfected HEK-293 cells. It counts as cell-based. As for the experimental part: SOR-C13, SOR-C27 and SOR-N54 were tested using a patch clamp screen to determine whether the peptide had any effect on the channel activity of TRPV3. Ruthenium red, a known antagonist of TRPV3 and 2-Aminoethoxydiphenyl Borate (2-APB) a known activator of TRPV3 were used as controls.
HEK 293 cells were maintained in ϕ30 mm cell culture plate in DMEM media supplemented with 10% fetal bovine serum and penicillin/streptomycin. Cells were grown in a humidified atmosphere of 95% air/5% CO2 at 37° C. in a cell culture incubator.
The cells from 70-90% confluence were prepared for transfection. For transient expression in HEK-293 cells 1 μg plasmid cDNA and pEGFP (in vivo reporter of gene expression) were used.
Recordings were performed at 20˜23° C. Currents were sampled using Digidata 1440A, amplified, and filtered at 2 kHz using Axopatch 200B, then acquired and analyzed using pClamp 10.0 (Molecular Devices, Sunny vales, CA, USA).
The pipette solution and bath solution contained 140 mM CsCl, 4 mM MgCl2, 10 mM EGTA, CsOH pH=7.3 and 130 mM NaCl, 5 mM KCl, 2 mM CaCl2), 1 mM MgCl2, 25 mM HEPES, 30 mM Glucose, pH=7.3, respectively.
Each peptide was diluted in the bath solution to the desired concentration (0.01 μM, 0.03 μM, 0.1 μM, 0.3 μM, 1 μM, 3 μM, or 10 μM), respectively.
In general terms: The patch-clamp technique gives a direct electrical read-out from membranes.

Assay [2] deals with HaCaT cells. Kind of assay: Wound healing (scratch gap closure) assay in HaCaT cells (Example 4). It counts as cell-based, human. Conditions: for Migration Score (gap closure activity): HaCaT wound model. As for the experimental part:
SOR-C13 and SOR-C27 were tested for their ability to promote tissue repair in a human keratinocytes (HaCaT) model of wound healing. In this model, cells are grown to confluency and then a gap is made in the sheet of cells by scratching the surface of the cells. After treating the cells for 24 hours, the closure of the gap, and the state of the cells in terms of polarization and mobility into the gap, are measured as a surrogate for activation of the wound healing response and the proliferation and/or migration of cells involved in tissue repair.
HaCaT cells were plated at 4×10^5 per well in 12-well tissue culture plates in MEGM Bullet Kit (Lonza, Cat. #CC-3150) containing bovine pituitary extracts (BPE), hEGF, insulin, and hydrocortisone. The total volume was 2 ml. About 24 hours later, a gap at the bottom of each well was generated by scratching with a sterile pipette tip. The supernatant was aspirated and cells were washed gently once with PBS. Fresh media (MEGM Bullet Kit, 2 ml) was added after the wash. Cells were treated in duplicates with PBS, or SOR-C13 at 10, 100 and 1000 μM, or SOR-C27 at 10, 100 and 1000 μM, and 100 μM valproic acid. After 24 hours, each well was examined under the microscope to semi-quantify the gap closure by cell migration. A digital camera fixed to the microscope was used to capture images of cells.
Under visual inspection, the wound healing results was scored as: • “−”: minimal cell polarization toward wound, no initiation of cell protrusion into the gap; no change in the wound gap; • “+”: cell polarization toward wound was observed; cell protrusion was observed; cell migration started but gap size is between 75 to 100% of original wound gap; • “++”: cell polarization toward the wound was observed; cell protrusion was observed; cell migration across the gap was observed, and gap size ≤½ of original wound gap; • “+++”: cell polarization toward wound was observed; cell protrusion was observed; cell migration across the gap was observed, and gap size ≤⅓ of original wound gap. Results

For assay [3], the system named is HaCaT cells. The assay can be described thus: Cell death assay in HaCaT cells with SOR-C13 fragments (Example 5). It counts as cell-based, human. Conditions: 100 and 1000 μM tested, 72 hours. Here is the method: Solutions of each of the peptides listed in Table 2 were made based on formulation weight without correction of purity in PBS at a 100 mM stock concentration. Stock solutions were sterilized by passing through a 0.2 μm syringe filter prewashed with PBS. Stocks of peptides were kept in aliquots at −20° C. during the study. Glycolic acid was made in a 5M stock in PBS and filtered using a 0.2 μm syringe filter and kept at −20° C.
Human immortalized keratinocyte HaCaT cells were cultured as described in Example 3.
HaCaT cells were plated at ˜8×10^5/well in each well of the 12-well tissue culture plates in triplicates in 2 ml culture media. Twenty-four (24) hours post-plating, cells were treated with PBS, or peptide stocks at 100 and 1000 μM (in triplicates), or glycolic acid at 20 mM (single data point). The Cell Death Assay was otherwise performed as described in Example 3.

Molecules are shown by their SMILES. “Also recorded” adds a separate entry of the source. Peptide text beside a SMILES is read from it. A value given as a limit tells only on which side of the number the result lay.

As for `CC(C)C[C@H](NC(=O)[C@H](Cc1ccccc1)NC(=O)[C@H](CCC(=O)O)NC(=O)[C@@H](N)CCCCN)C(=O)N[C@@H](Cc1cnc[nH]1)C(=O)N1CCC[C@H]1C(=O)N[C@@H](CO)C(=O)N[C@@H](CCCCN)C(=O)N[C@H](C(=O)N[C@@H](CC(=O)O)C(=O)N[C@@H](CC(C)C)C(=O)N1CCC[C@H]1C(=O)N[C@@H](CCCNC(=N)N)C(=O)O)C(C)C` [SOR-C13, KEFLHPSKVDLPR] (H-KEFLHPSKVDLPR-OH), the EC50 (in general, the midpoint of the concentration-response curve) in assay [1] turned out to be 0.0217 µM. The “effect on migration of HaCaT cells through the scratch (words)” value in the assay on HaCaT cells [2] (10 μM, 24 hours) is “little difference compared to PBS treatment”; in the assay with HaCaT cells [2] (100 μM, 24 hours) it was “clearly had an effect to induce cell migration”; in the assay on HaCaT cells [2] (1000 μM, 24 hours), “dramatically closed”. Further, the “Migration Score (gap closure activity)” value was “+ (cell polarization toward wound was observed; cell protrusion was observed; cell migration started but gap size is between 75 to 100% of original wound gap)” in the assay on HaCaT cells [2] (10 uM, 24 hours); “++ (cell polarization toward the wound was observed; cell protrusion was observed; cell migration across the gap was observed, and gap size ≤½ of original wound gap)” with HaCaT cells [2] (100 uM, 24 hours); “+++ (cell polarization toward wound was observed; cell protrusion was observed; cell migration across the gap was observed, and gap size ≤⅓ of original wound gap)” in the assay on HaCaT cells [2] (1000 uM, 24 hours). Moreover, in the assay with HaCaT cells [2] (10, 100, 1000 μM, 24 hours), the “effect on migration of HaCaT cells over the tested concentrations” value was “promote tissue repair in a dose responsive manner; also recorded: dose-dependent effect on promoting the migration; also recorded: induced migration of HaCaT cells in a dose-dependent manner”. The “concentrations at which wound healing of HaCaT cells was promoted” value in the assay with HaCaT cells [2] (24-hour incubation) was not below 100 µM. Also, the “induction of cell death (words)” value in the assay on HaCaT cells [3] is recorded as “no significant effect to induce cell death; also recorded: no increase in cell death above the PBS treatment”.
